Laboratory results: US20200323793A1, “COMBINATION THERAPY COMPRISING A POLYUNSATURATED KETONE AND A CALCINEURIN INHIBITOR” (Avexxin AS, priority 2016, published 2020)

Columns and labels:
[1] = system: skin keratinocyte cell line HaCaT; test: Resazurin assay, HaCaT cell viability, Example 2 (48 hours of treatment); type: cell-based, human; settings: each alone, dose response over 48 hours
Experimental: (§1) The spontaneously immortalized, nontumorigenic skin keratinocyte cell line HaCaT was maintained in DMEM supplemented with 5% (v/v) FBS, 0.3 mg/ml glutamine and 0.1 mg/ml gentamicin at 37° C. with 5% CO2 in a humidified atmosphere. Subculture using trypsin-EDTA was performed every 3-4 days with split ratio of 1:3-1:4 to ensure actively proliferating cells.
Cells were seeded in 96 well plates in fully supplemented medium at a density of 3000 cells per well. Following 72 hour of cultivation, the cells were starved of serum in 0.25% FBS/DMEM overnight to halt proliferation, synchronize the cells and to increase cell sensitivity to treatment. Next day, the cells were treated with Compound A1 and calcineurin inhibitor Pimecrolimus for 48 hours. Resazurin was added according to the manufacturer's instruction (RnD Systems, UK) and left to incubate for […] in incubator at 37° C. with 5% CO2 in a humidified atmosphere before fluorescence was read at 544 nm excitation and 590 nm emission wavelength. The cells were observed under the microscope to evaluate possible morphology changes and signs of stress before addition of resazurin. The experiments were performed in series of 8 wells per treatment.

[2] = system: skin keratinocyte cell line HaCaT; test: Resazurin assay, HaCaT proliferation and viability, Example 1 (24 hours of treatment); type: cell-based; settings: Homo sapiens, 25 μM alone, read-out: reduction of proliferation and viability of HaCaT cells
Experimental: as §1
Cells were seeded in 96 well plates in fully supplemented medium at a density of 2500 cells per well. Following 72 hours of cultivation, the cells were starved of serum in 0.25% FBS/DMEM overnight to halt proliferation, synchronize and to increase cell sensitivity to treatment. On day 4, the cells were treated with cPLA2α inhibitor Compound A1 and immunomodulator Pimecrolimus (Karebay Biochem # Ki0907) and left to incubate for […] in incubator at 37° C. with 5% CO2 in a humidified atmosphere before fluorescence was read at 544 nm excitation and 590 nm emission wavelength. The cells were observed under the microscope to evaluate possible morphology changes and signs of stress before addition of resazurin. The experiments were performed in series of 8 wells per treatment and repeated 2-3 times.

With `CC[C@@H]1/C=C(\C)C[C@H](C)C[C@H](OC)[C@H]2O[C@@](O)(C(=O)C(=O)N3CCCC[C@H]3C(=O)O[C@H](/C(C)=C/[C@@H]3CC[C@H](Cl)[C@H](OC)C3)[C@H](C)[C@@H](O)CC1=O)[C@H](C)C[C@@H]2OC` [Pimecrolimus] the “activity against viability of the cells (dose response)” value [1] was “active inhibitors” and the cytotoxicity at 25 µM [2] was about 15%.
